Consider 3 compounds from patent US11891403B2, “Tetrazole derivatives as TRPA1 inhibitors” (Boehringer Ingelheim International GmbH, priority 2020, dated 2024).

The target in one data set is T1, human TRPA1 ion channel (Homo sapiens, UniProt O75762).
T1 construct: host or cells: HEK293
The data set can be described thus: Assay A: TRPA1 assay (FLIPRtetra, AITC-induced intracellular calcium). The format is cell-based. The following applies: HEK293 cell line over-expressing human TRPA1, AITC agonism (final 10 μM), AUC of calcium signal, read-out: hTRPA1 IC50. The protocol: A human HEK293 cell line over-expressing the human TRPA1 ion channel (Perkin Elmer, Product No. AX-004-PCL) is used as a test system for compound efficacy and potency. Compound activity is determined by measuring the effect of compounds on intracellular calcium concentration induced by AITC (Allylisothiocyanat) agonism in a FLIPRtetra system (Molecular Devices).
The cells are obtained as frozen cells in cryo-vials and stored until use at −150° C.
Cells are grown in culture medium (MEM/EBSS medium with 10% FCS and 0.4 mg/ML Geneticin). […] For sub-culturing cells are detached from flasks by Versene. At the day before the assay, cells are detached, washed twice with medium (MEM/EBSS medium with 10% FCS) and 20000 cells in 20 μl/well are seeded to Poly D-Lysin biocoated 384-well plates (black, clear bottom, Cat. 356697) from Corning. Plates are incubated for 24 hours at 37° C./5% C02 before use in the assay.
The test compounds are dissolved in 100% DMSO at a concentration of 10 mM and in a first step diluted in DMSO to a concentration of 5 mM, followed by serial dilution steps in 100% DMSO. Dilution factor and number of dilution steps may vary according to needs. Typically 8 different concentrations by 1:5 dilutions are prepared, further intermediate dilutions (1:20) of the substances are carried out with HBSS/HEPES buffer (1×HEPES, Cat. 14065 from Gibco, 20 mM HEPES, Cat. 83264 from SIGMA, 0.1% BSA Cat. 11926 from Invitrogen, pH 7.4
At the assay day cells are washed 3× with assay puffer, 20 μL buffer remaining in the wells after washing. 10 μL Ca6 kit (Cat. R8191 Molecular Devices) loading buffer in HBSS/HEPES is added to the cells and the plates are incubated with lid for 120 minutes at 37°/5% CO2. 10 μL of compound or controls in HBSS/HEPES buffer/5% DMSO from the intermediate dilution plate are carefully added to the wells. […] Finally 10 μL of the agonist AITC 50 μM dissolved in HBSS/HEPES buffer/0.05% DMSO (final concentration 10 μM) is added to the wells followed by an additional read on the FLIPRtetra device for 10 minutes. The area under the signal curve (AUC) after AITC addition is used for IC50/% inhibition calculations
Data Evaluation and Calculation:
Each assay microtiter plate contains wells with vehicle (1% DMSO) controls instead of compound as controls for AITC induced luminescence (100% CTL; high controls) and is wells with vehicle controls without AITC as controls for non-specific changes in luminescence (0% CTL; low controls).
The analysis of the data is performed by the calculation of the area under signal curve of the individual wells. Based on this values the % value for the measurement of each substance concentration is calculated (AUC(sample)−AUC(low))*100/(AUC(high)−AUC(low)) using MegaLab software (in house development). The IC50 values are calculated from the % control values using MegaLab software. Calculation: [y=(ad)/(1+(x/c)^b)+d], a=low value, d=high value; x=conc M; c=IC50 M; b=hill; y=% ctrl
In general terms: Calcium flux is commonly read through the fluorescence of an indicator in the cells.

A short description of data set [1]: Assay C: Hepatocyte clearance. The format is in vitro ADME, human. The following applies: cryopreserved hepatocyte suspension, test compound 1 μM, up to 6 h; predicted clearance as % of hepatic blood flow. Here is the method: Assay C: Hepatocyte Clearance
The metabolic degradation of the test compound is assayed in a hepatocyte suspension. Hepatocytes (cryopreserved) are incubated in Dulbecco's modified eagle medium (supplemented with 3.5 μg glucagon/500 mL, 2.5 mg insulin/500 mL and 3.75 mg/500 mL hydrocortison) containing 5% or 50% species serum.
The cells are incubated for six hours (incubator, orbital shaker) and samples (25 μl) are taken at 0, 0.5, 1, 2, 4 and 6 hours. Samples are transferred into acetonitrile and pelleted by centrifugation (5 min). The supernatant is transferred to a new 96-deepwell plate, evaporated under nitrogen and resuspended.
Decline of parent compound is analyzed by HPLC-MS/MS
CLint is calculated as follows CL_[…]=Dose/AUC=(CO/CD)/(AUD+clast/k)×1000/60. CO: initial concentration in the incubation [P M], CD: cell density of vital cells [10e6 cells/mL], AUD: area under the data [μM×h], clast: concentration of last data point [μM], k: slope of the regression line for parent decline [h−1].
The calculated in vitro hepatic intrinsic clearance can be scaled up to the intrinsic in vivo hepatic Clearance and used to predict hepatic in vivo blood clearance (CL) by the use of a liver model (well stirred model). CL_[…]_INVIVO [ml/min/kg]=(CL_[…] [μL/min/10e6 cells]×hepatocellularity [10e6 cells/g liver]×liver factor [g/kg bodyweight])/1000 CL [ml/min/kg]=CL_[…]_INVIVO [ml/min/kg]×hepatic blood flow [ml/min/kg]/(CL_[…]_INVIVO [ml/min/kg]+hepatic blood flow [ml/min/kg]) Qh [%]=CL [ml/min/kg]/hepatic blood flow [ml/min/kg])
(§1) Hepatocellularity, human: 120×10e6 cells/g liver
(§2) Liver factor, human: 25.7 g/kg bodyweight
(§3) Blood flow, human: 21 ml/(min×kg)

Data set [2] is described as follows: Assay B: Microsomal clearance. The format is in vitro ADME, human. The following applies: pooled liver microsomes 1 mg/ml, test compound 1 μM, 37° C., NADPH; clearance as % of hepatic blood flow. The protocol:
Assay B: Microsomal Clearance:
The metabolic degradation of the test compound is assayed at 37° C. with pooled liver microsomes. The final incubation volume of 100 μl per time point contains TRIS buffer pH 7.6 at RT (0.1 M), magnesium chloride (5 mM), microsomal protein (1 mg/ml) and the test compound at a final concentration of 1 μM.
Following a short preincubation period at 37° C., the reactions are initiated by addition of beta-nicotinamide adenine dinucleotide phosphate, reduced form (NADPH, 1 mM) and terminated by transferring an aliquot into solvent after different time points (0, 5, 15, 30, 60 min). Additionally, the NADPH-independent degradation is monitored in incubations without NADPH, terminated at the last time point. The [%] remaining test compound after NADPH independent incubation is reflected by the parameter c (control) (metabolic stability). The quenched incubations are pelleted by centrifugation (10000 g, 5 min).
An aliquot of the supernatant is assayed by LC-MS/MS for the amount of parent compound. The half-life (t½ INVITRO) is determined by the slope of the semilogarithmic plot of the concentration-time profile.
The intrinsic clearance (CL_[…]) is calculated by considering the amount of protein in the incubation: CL_[…] [μl/min/mg protein]=(Ln 2/(half-life [min]*protein content [mg/ml]))*1000 CL_[…]_INVIVO [ml/min/kg]=(CL_[…] [μL/min/mg protein]×MPPGL [mg protein/g liver]×liver factor [g/kg bodyweight])/1000 Qh [%]=CL [ml/min/kg]/hepatic blood flow [ml/min/kg])
as §1, §2, §3

T1 sequence (O75762 whole entry): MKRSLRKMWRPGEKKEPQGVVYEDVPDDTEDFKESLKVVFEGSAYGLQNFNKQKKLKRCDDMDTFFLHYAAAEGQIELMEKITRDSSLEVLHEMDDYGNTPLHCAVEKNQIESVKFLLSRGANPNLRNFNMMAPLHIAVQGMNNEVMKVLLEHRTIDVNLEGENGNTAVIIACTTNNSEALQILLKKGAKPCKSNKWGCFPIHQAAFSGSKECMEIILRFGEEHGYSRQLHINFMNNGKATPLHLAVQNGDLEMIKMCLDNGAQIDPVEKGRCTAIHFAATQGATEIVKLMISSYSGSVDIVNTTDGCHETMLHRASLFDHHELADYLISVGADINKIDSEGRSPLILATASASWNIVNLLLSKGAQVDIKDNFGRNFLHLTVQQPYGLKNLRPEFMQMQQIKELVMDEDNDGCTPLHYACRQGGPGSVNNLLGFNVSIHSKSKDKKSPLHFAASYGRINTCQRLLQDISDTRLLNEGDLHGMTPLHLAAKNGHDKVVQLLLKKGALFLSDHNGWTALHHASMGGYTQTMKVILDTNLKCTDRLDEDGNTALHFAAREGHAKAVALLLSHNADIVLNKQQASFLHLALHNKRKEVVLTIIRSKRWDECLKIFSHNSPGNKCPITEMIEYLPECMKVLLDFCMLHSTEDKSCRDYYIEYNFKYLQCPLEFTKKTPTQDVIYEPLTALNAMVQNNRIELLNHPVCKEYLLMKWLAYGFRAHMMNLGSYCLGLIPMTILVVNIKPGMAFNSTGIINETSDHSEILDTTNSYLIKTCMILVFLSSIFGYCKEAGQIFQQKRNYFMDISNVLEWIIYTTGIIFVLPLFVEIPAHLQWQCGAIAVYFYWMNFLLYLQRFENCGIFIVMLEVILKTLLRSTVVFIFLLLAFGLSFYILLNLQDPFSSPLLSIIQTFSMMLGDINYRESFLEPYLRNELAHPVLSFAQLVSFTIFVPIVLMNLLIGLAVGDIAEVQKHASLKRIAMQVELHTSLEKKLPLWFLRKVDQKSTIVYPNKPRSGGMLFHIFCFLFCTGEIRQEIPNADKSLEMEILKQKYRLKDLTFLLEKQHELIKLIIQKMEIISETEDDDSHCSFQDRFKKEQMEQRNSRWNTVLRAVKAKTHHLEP

For `CN1C(=O)COc2ncn(Cc3nnn(C[C@H](O)c4cc5ccc(F)cc5o4)n3)c(=O)c21` [Example 13], the IC50 on human TRPA1 ion channel was 145 nM. The “human Hepatocytes [% Qh]” value in data set [1] is 10 % Qh. The “human LM [% Qh]” value in data set [2] is recorded as below 23 % Qh.

`CN1C(=O)COc2ncn(Cc3nnn(C[C@H](O)c4cc5ccccc5o4)n3)c(=O)c21` [Example 12]: the IC50 on human TRPA1 ion channel was found to be 115 nM. Besides, in data set [1], the “human Hepatocytes [% Qh]” value is given as 8 % Qh. Also, the “human LM [% Qh]” value in data set [2] was below 23 % Qh.

Regarding `CN1C(=O)COc2ncn(Cc3nnn(C[C@H](O)c4cc5ccccc5s4)n3)c(=O)c21` [Example 3], the concentration for half-maximal inhibition (IC50) at human TRPA1 ion channel amounted to 23 nM. Further, the “human Hepatocytes [% Qh]” value in data set [1] is given as 18 % Qh. Also, in data set [2], the “human LM [% Qh]” value is below 23 % Qh.

In general, IC50 refers to the concentration that inhibits the measured activity by half.
